# According to patent publication US20240132511A1, “TREATMENTS OF PRADER-WILLI SYNDROME” (Neuren Pharmaceuticals Limited, priority 2021, published 2024):
row,SMILES,melting point
1,"C[C@@]12CCCN1C(=O)C1(CCCC1)NC2=O [Cyclic cyclopentyl-G-2-MeP, (8aS)-Methyl-spiro[cyclopentane-1,3(4H)-tetrahydropyrrolo[1,2-a]pyrazine]-1,4(2H)-dione]",160 to 163 °C
2,"C[C@@]12CCCN1C(=O)C1(CCCCC1)NC2=O [Cyclic cyclohexyl-G-2-MeP, (8aS)-Methyl-spiro[cyclohexane-1,3(4H)-tetrahydropyrrolo[1,2-a]pyrazine]-1,4(2H)-dione]",174 to 177 °C
